± gives the expanded uncertainty stated by the source.
Test: wn = mass fraction of the nth substance listed
Conditions: 100 kPa, Liquid, Concentric cylinders viscometry

SMILES: CCN(CC)CCO [(diethylamino)ethanol] + O
- viscosity (303.2 K, w1 = 0.3001): 2.96 ± 0.34 mPa·s
- viscosity (303.2 K, w1 = 0.3499): 3.34 ± 0.34 mPa·s
- viscosity (303.2 K, w1 = 0.4001): 4.56 ± 0.34 mPa·s
- viscosity (303.2 K, w1 = 0.4501): 5.06 ± 0.34 mPa·s
- viscosity (303.2 K, w1 = 0.4999): 6.11 ± 0.34 mPa·s
- viscosity (303.2 K, w1 = 0.6001): 8.41 ± 0.35 mPa·s
- viscosity (313.2 K, w1 = 0.3001): 2.12 ± 0.34 mPa·s
- viscosity (313.2 K, w1 = 0.3499): 2.36 ± 0.34 mPa·s
- viscosity (313.2 K, w1 = 0.4001): 3.12 ± 0.34 mPa·s
- viscosity (313.2 K, w1 = 0.4501): 3.65 ± 0.34 mPa·s
- viscosity (313.2 K, w1 = 0.4999): 4.33 ± 0.34 mPa·s
- viscosity (313.2 K, w1 = 0.6001): 5.52 ± 0.34 mPa·s
- viscosity (323.2 K, w1 = 0.3001): 1.59 ± 0.34 mPa·s
- viscosity (323.2 K, w1 = 0.3499): 1.81 ± 0.34 mPa·s
- viscosity (323.2 K, w1 = 0.4001): 2.23 ± 0.34 mPa·s
- viscosity (323.2 K, w1 = 0.4501): 2.69 ± 0.34 mPa·s
- viscosity (323.2 K, w1 = 0.4999): 3.07 ± 0.34 mPa·s
- viscosity (323.2 K, w1 = 0.6001): 3.74 ± 0.34 mPa·s

Source: the NIST ThermoML archive (doi:10.1016/j.jct.2015.12.001)
